According to the CheMixHub viscosity set:
Several values for one entry are separate records, joined by “and”; a condition that tells them apart may be missing. Identical values can stand only once.

Test: xn = mol fraction of the nth substance listed

COc1ccccc1N + CC(C)(C)O
viscosity [mPa·s], 101 kPa
Conditions | x1 = 0.1116 | x1 = 0.186 | x1 = 0.2667 | x1 = 0.3547 | x1 = 0.4852 | x1 = 0.5945 | x1 = 0.6737 | x1 = 0.7585 | x1 = 0.8979
303.15 K | 3.186 | 3.335 | 3.499 | 3.676 | 3.932 | 4.141 | 4.289 | 4.448 | 4.714
308.15 K | 2.904 | 3.046 | 3.199 | 3.363 | 3.602 | 3.797 | 3.935 | 4.083 | 4.327
313.15 K | 2.371 | 2.521 | 2.681 | 2.855 | 3.114 | 3.333 | 3.493 | 3.669 | 3.962
318.15 K | 1.967 | 2.116 | 2.277 | 2.451 | 2.718 | 2.95 | 3.123 | 3.314 | 3.639

CCC(C)=O + CC(C)=O
viscosity [mPa·s], 101 kPa
Conditions | x1 = 0.2 | x1 = 0.4 | x1 = 0.6 | x1 = 0.8
293.15 K | 0.334 | 0.35 | 0.365 | 0.381
313.15 K | 0.278 | 0.29 | 0.302 | 0.314

O=C(O)c1ccccc1 + CC(C)=O
viscosity, 101 kPa
Conditions | 298.15 K | 303.15 K | 308.15 K | 313.15 K | 318.15 K
x1 = 0.201 | – | – | 0.6647 mPa·s | – | 0.5884 mPa·s
x1 = 0.2103 | 0.755 mPa·s | 0.7075 mPa·s | 0.6647 mPa·s | 0.6278 mPa·s | 0.5884 mPa·s
x1 = 0.213 | – | – | 0.6741 mPa·s | – | 0.5924 mPa·s
x1 = 0.229 | – | 0.7776 mPa·s | 0.7283 mPa·s and 0.7283 mPa·s | 0.6819 mPa·s | 0.6407 mPa·s and 0.6407 mPa·s
x1 = 0.247 | – | – | 0.75 mPa·s | – | 0.6571 mPa·s

CCCCCCCC(=O)OCC + CC(C)CCO
100 kPa
Conditions | viscosity [mPa·s]
298.15 K, x1 = 0.3 | 1.885
308.15 K, x1 = 0.5001 | 1.315
313.15 K, x1 = 0.1 | 1.845

CCC(C)=O + CC(C)CO
viscosity [mPa·s], 101.3 kPa
Conditions | x2 = 0.0854 | x2 = 0.1986 | x2 = 0.3001 | x2 = 0.3904 | x2 = 0.4974 | x2 = 0.5941 | x2 = 0.6983 | x2 = 0.7991 | x2 = 0.8965
298.15 K | 0.423 | 0.477 | 0.538 | 0.613 | 0.734 | 0.885 | 1.13 | 1.5 | 2.115
308.15 K | 0.38 | 0.426 | 0.476 | 0.535 | 0.63 | 0.748 | 0.933 | 1.206 | 1.637
318.15 K | 0.344 | 0.382 | 0.424 | 0.473 | 0.548 | 0.64 | 0.781 | 0.983 | 1.289

C1CCCCC1 + CC(C)O
303.15 K, 101.33 kPa
Conditions | viscosity [mPa·s]
x2 = 0.098 | 0.8169
x2 = 0.2003 | 0.8387
x2 = 0.3097 | 0.8861
x2 = 0.3997 | 0.9325
x2 = 0.4969 | 0.9831
x2 = 0.6009 | 1.063
x2 = 0.7025 | 1.174
x2 = 0.8004 | 1.313

CCC(C)=O + CC(C)O
101 kPa
Conditions | viscosity [mPa·s]
308.15 K, x1 = 0.1282 | 1.095
313.15 K, x1 = 0.0595 | 1.165

COC(C)=O + CC(C)O
298.15 K
Conditions | viscosity [mPa·s]
101 kPa, x2 = 0.0988 | 0.385
101 kPa, x2 = 0.2003 | 0.416
101 kPa, x2 = 0.3227 | 0.453
101 kPa, x2 = 0.3967 | 0.484
101 kPa, x2 = 0.4976 | 0.53
101 kPa, x2 = 0.666 | 0.668
101 kPa, x2 = 0.7895 | 0.933
101 kPa, x2 = 0.7978 | 0.96
101 kPa, x2 = 0.9011 | 1.37
101.33 kPa, x1 = 0.0598 | 1.642
101.33 kPa, x1 = 0.1684 | 1.101
101.33 kPa, x1 = 0.2671 | 0.83
101.33 kPa, x1 = 0.3634 | 0.671
101.33 kPa, x1 = 0.4646 | 0.571
101.33 kPa, x1 = 0.5621 | 0.504
101.33 kPa, x1 = 0.6773 | 0.448
101.33 kPa, x1 = 0.7619 | 0.417
101.33 kPa, x1 = 0.866 | 0.394

O=C(O)c1ccccc1 + CC(C)O
viscosity [mPa·s], 101 kPa
Conditions | x1 = 0.000601 | x1 = 0.00181 | x1 = 0.00276 | x1 = 0.0042 | x1 = 0.00508 | x1 = 0.005992
298.15 K | 2.579 | 2.574 | 2.569 | 2.562 | 2.559 | 2.556
308.15 K | 1.932 | 1.927 | 1.922 | 1.916 | 1.914 | 1.912
318.15 K | 1.496 | 1.49 | 1.486 | 1.481 | 1.479 | 1.477

CC(=O)C(=O)O + CC(C)[C@@H]1CC[C@@H](C)C[C@H]1O
100 kPa, x2 = 0.67
Conditions | viscosity [mPa·s]
293.15 K | 44.64
298.15 K | 29.95
303.15 K | 21.24
308.15 K | 15.67
313.15 K | 11.88
318.15 K | 9.36
323.15 K | 7.511

COC(C)=O + CC(O)CO
Conditions | viscosity [mPa·s]
298.15 K, 101 kPa, x1 = 0.251 | 12.35

COc1ccccc1N + CCC(=O)CC
viscosity [mPa·s], 100 kPa
Conditions | x1 = 0.0991 | x1 = 0.1998 | x1 = 0.2865 | x1 = 0.3698 | x1 = 0.4502 | x1 = 0.5469 | x1 = 0.6601 | x1 = 0.7965 | x1 = 0.8805
303.15 K | 0.905 | 1.383 | 1.793 | 2.178 | 2.544 | 2.98 | 3.48 | 4.069 | 4.425
308.15 K | 0.85 | 1.3 | 1.681 | 2.038 | 2.379 | 2.784 | 3.249 | 3.796 | 4.123
313.15 K | 0.795 | 1.217 | 1.569 | 1.897 | 2.213 | 2.586 | 3.016 | 3.52 | 3.819

COc1ccccc1N + CCC(=O)O
viscosity [mPa·s], 100 kPa
Conditions | x1 = 0.1097 | x1 = 0.183 | x1 = 0.2628 | x1 = 0.3502 | x1 = 0.4802 | x1 = 0.5897 | x1 = 0.6693 | x1 = 0.7549 | x1 = 0.8961
303.15 K | 1.402 | 1.697 | 2.017 | 2.367 | 2.884 | 3.317 | 3.631 | 3.967 | 4.518
308.15 K | 1.3 | 1.575 | 1.873 | 2.198 | 2.679 | 3.082 | 3.373 | 3.685 | 4.197
313.15 K | 1.197 | 1.452 | 1.727 | 2.028 | 2.472 | 2.844 | 3.113 | 3.401 | 3.873
318.15 K | 1.097 | 1.333 | 1.587 | 1.865 | 2.275 | 2.619 | 2.867 | 3.132 | 3.567

COc1ccccc1N + CCC(C)=O
viscosity [mPa·s], 100 kPa
Conditions | x1 = 0.0814 | x1 = 0.1724 | x1 = 0.2543 | x1 = 0.3412 | x1 = 0.4394 | x1 = 0.5191 | x1 = 0.6354 | x1 = 0.7587 | x1 = 0.8677
303.15 K | 0.785 | 1.225 | 1.615 | 2.024 | 2.477 | 2.84 | 3.362 | 3.906 | 4.373
308.15 K | 0.727 | 1.145 | 1.51 | 1.888 | 2.31 | 2.648 | 3.136 | 3.642 | 4.073
313.15 K | 0.669 | 1.064 | 1.403 | 1.751 | 2.142 | 2.455 | 2.907 | 3.376 | 3.77
